Here are results for 1 compound from PMC4357015, “Structure, Function and Inhibition of the Phosphoethanolamine Methyltransferases of the Human Malaria Parasites Plasmodium vivax and Plasmodium knowlesi” (Scientific Reports, 2015).

This assay concerns PC biosynthesis in pem1Δpem2Δ-pYES2.1-PvPMT. As to the kind of experiment: phospholipid analysis of yeast pem1Δpem2Δ strain expressing PvPMT. It counts as cell-based. The conditions noted are these: 200 μM AQ. The method, then: Figure 6 PMT-dependent inhibition of PC biosynthesis by AQ and NSC158011. To assess the effect of AQ on phospholipid metabolism, […] and wild-type strains were grown in minimal medium containing 4% galactose and 2 mM ethanolamine in the absence or presence of 200 μM AQ, lipids were extracted and separated by TLC (A). Each lipid class was scrapped off the TLC plate and quantified by measuring phosphorus (B). The effect of NSC158011 on phospholipid biosynthesis was determined by [33P] orthophosphoric acid labeling as described in Material and Methods. Lipids were separated by TLC (C) and quantified by liquid scintillation spectrometry (D). For all assays, data were used to calculate the PC/PI + PA ratio. The data are represented as the mean ± S.D. of at least two independent experiments.
BY4741-pYes2.1 (wild-type) strains and the pem1Δpem2Δ strains harboring pYES2.1 vector, pYES2.1-PkPMT, pYES2.1-PvPMT or pYES2.1-PfPMT were pre-grown to mid-log phase at 30°C in SG-URA medium supplemented with Etn (2 mM) and Cho (2 mM). […] Each lipid class was excised from the plate and quantified by measuring phosphorus. […] After the growth, lipids were extracted and analyzed as described above. […] The resolved radioactive lipids were visualized by Phosphorimager (GE Typhoon) and quantified by liquid scintillation spectrometry as described.

SMILES strings stand for the structures.

`CCN(CC)Cc1cc(Nc2ccnc3cc(Cl)ccc23)ccc1O` [AQ, amodiaquine]: the “effect on the synthesis of PE” value is given as “little to no effect”.
